Assay results taken from patent EP0435794A1, “Alkenyl- or heteroaryl thio, sulfone, sulfoxy herbicides” (RHONE-POULENC AGROCHIMIE, priority 1989, dated 1991).

Columns and labels:
Format in all cases: in vivo
[1] = tested on: ORYSA SATIVA Cv Nihonbare; experiment: Exemple D: herbicide application on submerged plants (rice paddy model), transplanted rice; details: rice transplanted 4 days before treatment, 24 days
From the text: (§1) Exemple D : Application herbicide en pré ou post levée d'espèces végétales submergées (modèle rizière)
(§2) Dans des pots de 9 x 9 x 9 cm remplis de terre agricole on sème un nombre de graines ou on plante un nombre de bulbes ou rhizomes déterminé en fonction de l'espèce végétale ou de la grosseur des organes. Pour le riz, 4 plants au stade 2-3 feuilles sont transplantés dans un pot rempli de terre végétale 4 jours avant le traitement.
(§3) Les pots sont ensuite immergés dans un bac de taille adapté aux pots de manière à ce que l'eau recouvre de 1 à 2 cm la surface du sol.
(§4) Le stade de traitement est le stade prélevée ou 1 à 2 feuilles développées des adventices. Le traitement est effectué par répartition de la bouillie dans l'eau de submersion en quantité correspondant à une dose d'application de 500 l/ha et contenant la matière active à la concentration requise.
(§5) La bouillie utilisée pour le traitement est une solution ou suspension de la matière active dans un mélange acétone/eau en proportion 50/50, en présence de 0,05 % en poids de Cemulsol NP 10 (agent tensioactif constitué d'alkylphénol polyéthoxylé, notamment de nonylphénol polyéthoxylé) et 0,04 % en poids de tween 20 (agent tensio-actif constitué d'un oléate de dérivé polyoxyéthyléné du sorbitol).
(§6) Dans le cas d'une suspension, celle-ci est obtenue en mélangeant et broyant les ingrédients dans un microniseur de façon à obtenir une grosseur moyenne de particules inférieures à 40 microns.
(§7) Le niveau d'eau de submersion est ensuite maintenu par apport d'eau tout au long de la durée de l'expérimentation soit […]. Les bacs contenant les pots sont placés dans une serre régulée en température à 18°C la nuit et 22°C le jour et en humidité à 70 % d'humidité relative.
(§8) Au bout de 24 jours, on compte le nombre de plantes vivantes dans les pots traités par la bouillie contenant la matière active à tester et le nombre de plantes vivantes dans un pot témoin traité selon les mêmes conditions, mais au moyen d'une bouillie ne contenant pas de matière active. On mesure ainsi un pourcentage (D) des destructions du nombre de pieds dans le pot traité par rapport au nombre de plantes dans les pots non traités (témoin). On mesure, sur les plantes traitées restantes, le pourcentage de réduction de taille (RT) par rapport aux plantes témoin. Le pourcentage du volume foliaire non détruit par le produit est donc donné par la formule: ([100-D] x [100-RT])/(100)= A [formula]
(§9) Cette valeur A est transformée en notation de 0 à 5 selon l'échelle suivante:
(§10) Les résultats obtenus sont présentés dans le tableau suivant pour des doses d'application de 500, 1000 ou 2000 g de matière active par hectare.
COMPOSE N°5/RIZ (transplanté 4 jours avant traitement)

ALISMA CANALICULATUM = experiment: Exemple D: herbicide application pre or post emergence on submerged plants (rice paddy model); details: 2-leaf stage, 24 days
From the text: as §1, §2, §3, §4, §5, §6, §7, §8, §9, §10

CYPERUS SEROTINUS = experiment: as above; details: 24 days; for % d'efficacité CYPERUS SEROTINUS (1 feuille): 1-leaf stage; for % d'efficacité CYPERUS SEROTINUS (prélevée): pre-emergence
From the text: as §1, §2, §3, §4, §5, §6, §7, §8, §9, §10

Echinochloa crus galli = experiment: as above; details: 24 days; for % d'efficacité ECHINOCHLOA CRUS GALLI (1 feuille): 1-leaf stage; for % d'efficacité ECHINOCHLOA CRUS GALLI (prélevée): pre-emergence
From the text: as §1, §2, §3, §4, §5, §6, §7, §8, §9, §10

[2] = 500 g de matière active par hectare
[3] = 1000 g de matière active par hectare

Structure (SMILES): CCCCOCN(C(=O)CCl)c1c(CC)cccc1CC [Butachlor, reference compound]
- % d'efficacité ORYSA SATIVA Cv Nihonbare [1, 2]: 0 (90 à 100)
- % d'efficacité ORYSA SATIVA Cv Nihonbare [1, 3]: 0 (90 à 100)
- % d'efficacité ALISMA CANALICULATUM (2 feuilles) (ALISMA CANALICULATUM; [2]): 4 (10 à 30)
- % d'efficacité ALISMA CANALICULATUM (2 feuilles) (ALISMA CANALICULATUM; [3]): 5 (0 à 10)
- % d'efficacité CYPERUS SEROTINUS (1 feuille) (CYPERUS SEROTINUS; [2]): 0 (90 à 100)
- % d'efficacité CYPERUS SEROTINUS (1 feuille) (CYPERUS SEROTINUS; [3]): 1 (70 à 90)
- % d'efficacité CYPERUS SEROTINUS (prélevée) (CYPERUS SEROTINUS; [2]): 0 (90 à 100)
- % d'efficacité CYPERUS SEROTINUS (prélevée) (CYPERUS SEROTINUS; [3]): 1 (70 à 90)
- % d'efficacité ECHINOCHLOA CRUS GALLI (1 feuille) (Echinochloa crus galli; [2]): 1 (70 à 90)
- % d'efficacité ECHINOCHLOA CRUS GALLI (1 feuille) (Echinochloa crus galli; [3]): 4 (10 à 30)
- % d'efficacité ECHINOCHLOA CRUS GALLI (prélevée) (Echinochloa crus galli; [2]): 5 (0 à 10)
- % d'efficacité ECHINOCHLOA CRUS GALLI (prélevée) (Echinochloa crus galli; [3]): 5 (0 à 10)
